These results are taken from patent US9518041B2, “(+)-5-(3,4-difluorophenyl)-5-[(3-methyl-2-oxopyridin-1(2H)-yl)methyl]imidazolidine-2,4-dione and drug containing same” (KAKEN PHARMACEUTICAL CO., LTD., priority 2013, dated 2016).

Series [1] is described as follows: Pharmacokinetic study after intravenous and percutaneous administration in hairless mice. It is filed as in vivo. To be noted: 1 w/v % Macrogol 400 solution, 50 μL/animal, occlusive. The method, then: Test substances (0.1 to 0.5 mg/5 mL/kg) were administered by bolus injection into the tail vein of hairless mice under anesthesia.
A 4 cm^2 administration site (2 cm×2 cm) was marked on the back skin of hairless mice under anesthesia (fed) using an oil-based marker. Test substances were applied to the administration site at 50 μL/animal (1 w/v % Macrogol 400 solution). Gauze (BEMCOT®) about 2 cm×2 cm in size was fixed using double-sided tape to an approximately 4 cm×4 cm polyethylene sheet, and the gauze face was placed over the face on which the test substance had been applied. An adhesive elastic bandage (Elastopore, about 10 cm) was stuck over the gauze to fix and protect the face on which the test substance had been applied. The mice were then returned to its cage. Twenty-four hours after administration, occlusive application was confirmed to have been properly carried out. […]
The cryopreserved plasma obtained by the above method was thawed at room temperature. After removing the protein using methanol, the concentration of the test substance in the plasma was measured. […]
Transdermal absorption rate was calculated using the following equation by calculating the AUC (area under the curve of the concentration in plasma) from the plasma concentration of the test substance measured by the method described above. […]

The next series addresses T1, human MMP-14 (Homo sapiens, UniProt P50281).
T1 construct: purchased Calbiochem 475935
As to the kind of experiment: MMP-14 inhibition test. To be noted: read-out: Inhibitory activity (IC50, nM) MMP-14. It is filed as biochemical. Here is the method: (§1) MMP inhibition tests can be carried out, for example, using a fluorescent synthetic substrate based on the methods described in Bickett et al. (D. Mark Bickett et al., Anal. Biochem., 1993, 212, 58-64) and Nagase et al. (H. Nagase et al., J. Biol. Chem., 1994, 269, 20952-20957). The method for each MMP inhibition test is shown below.
(§2) 90 μL (1.9 ng) of human MMP-14 (Calbiochem #475935) prepared with an assay buffer A was added to 90 μL of a 20 μM fluorescent substrate (Dnp-Pro-Cha-Gly-Cys(Me)-His-Ala-Lys(Nma)-NH2) (SEQ ID NO: 2) prepared with an assay buffer B, and reacted at 37° C. for 5 hours. Enzyme activity was then determined by measuring with a fluorescence intensity meter (Labsystems, Fluoroskan Ascent) at an excitation wavelength of 355 nm and a measurement wavelength of 460 nm.
(§3) From the enzyme activity in the presence or the absence of the test substance, the inhibition rate was determined, and the 50% inhibitiory concentration (IC50) of the test substance was calculated.

The target of another series is T2, human MMP-13 (Homo sapiens, UniProt P45452).
T2 construct: purchased Calbiochem 444287
As to the kind of experiment: MMP-13 inhibition test. Type of series: biochemical. Conditions: read-out: Inhibitory activity (IC50, nM) MMP-13. The method, then: as §1
as §2, with “μL (130” for “μL (1.9”, “human MMP-13” for “human MMP-14”, “(Calbiochem #444287) was mixed with 10 μL of 10 mM APMA, and activated by reacting at 37° C. for 1 hour. 10 μL of the resultant enzyme solution was diluted to 90 μL” for “(Calbiochem #475935) prepared”, “buffer A. The mixture” for “buffer A”, “for 4” for “for 5”
as §3

The target in a further series is T3, human MMP-9 (Homo sapiens, UniProt P14780).
T3 construct: purchased Calbiochem 444231
As to the kind of experiment: MMP-9 inhibition test. It is filed as biochemical. Conditions: read-out: Inhibitory activity (IC50, nM) MMP-9. Here is the method: as §1
as §2, with “μL (11” for “μL (1.9”, “human MMP-9” for “human MMP-14”, “(Calbiochem #444231) was mixed with 10 μL of 10 mM APMA, and activated by reacting at 37° C. for 2 hours. 10 μL of the resultant enzyme solution was diluted to 90 μL” for “(Calbiochem #475935) prepared”, “buffer A. The mixture” for “buffer A”, “for 4” for “for 5”
as §3

T3 sequence (P14780 107-707 limits assumed): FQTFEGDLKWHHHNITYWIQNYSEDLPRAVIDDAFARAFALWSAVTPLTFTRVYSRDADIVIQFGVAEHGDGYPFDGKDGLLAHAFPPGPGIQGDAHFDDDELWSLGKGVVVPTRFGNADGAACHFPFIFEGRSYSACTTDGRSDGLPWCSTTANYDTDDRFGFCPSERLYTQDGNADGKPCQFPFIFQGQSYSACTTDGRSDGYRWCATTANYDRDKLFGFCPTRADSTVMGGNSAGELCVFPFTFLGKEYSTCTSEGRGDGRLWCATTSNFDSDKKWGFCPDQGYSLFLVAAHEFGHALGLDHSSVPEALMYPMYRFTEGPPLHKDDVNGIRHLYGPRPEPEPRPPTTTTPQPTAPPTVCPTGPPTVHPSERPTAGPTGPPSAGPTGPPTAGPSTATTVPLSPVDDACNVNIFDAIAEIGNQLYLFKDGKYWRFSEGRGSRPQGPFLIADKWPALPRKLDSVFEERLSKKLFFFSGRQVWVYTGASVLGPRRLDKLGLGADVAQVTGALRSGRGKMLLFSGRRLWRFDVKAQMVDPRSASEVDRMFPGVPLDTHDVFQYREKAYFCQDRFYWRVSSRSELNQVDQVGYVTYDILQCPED

In the case of `Cc1cccn(CC2(c3ccc(F)c(F)c3)NC(=O)NC2=O)c1=O` (single isomer, unassigned; (+)) [(+)-5-(3,4-difluorophenyl)-5-[(3-methyl-2-oxopyridin-1(2H)-yl)methyl]imidazolidine-2,4-dione], the “Transdermal absorbability after percutaneous administration” value in series [1] was “good transdermal absorbability”. Moreover, the 50% inhibitory concentration (IC50) on human MMP-14, at human MMP-13 and at human MMP-9 was above 10000 nM each time.
